Assay results as given in US6087358A (priority 1997, dated 2000).
Values after ≈ are worked out from the molar mass of the structure shown. Like-named read-outs stand apart in the source and are kept apart here.

Assays:
[1] = test system: Mycobacterium bovis BCG (recombinant strain); experiment: microbe, parasite or virus in culture; type: cell-based; settings: 6 days 37° C.; for MIC: Mycobacterium tuberculosis variant bovis BCG, BCG, 144 h, read-out: MIC, column A, 3(S) compounds
[2] = test system: Clostridium difficile ATCC 17857; experiment: In vitro inhibition of Clostridium difficile (Oxyrase broth microdilution MIC); type: cell-based; settings: Clostridioides difficile, ATCC17857; Clostridium difficile ATCC 17857, Oxyrase broth; read-out: MIC, column D, 3(S) compounds
Helicobacter pylori = experiment: In vitro inhibition of Helicobacter pylori (broth microdilution MIC); settings: for MIC: Helicobacter pylori
[3] = test system: Mycobacterium tuberculosis (rMTB); experiment: In vivo antimycobacterial activity against M. tuberculosis (rMTB) in lungs of mice; parameters: species or system Mycobacterium tuberculosis Erdman, in female BALB/c mice; settings: 25 mg/kg daily oral gavage, CM-2, 10 days, control 117,258 (PA-824, 636, 1297) or 22,751 (others)
Cryptosporidium parvum = experiment: Inhibition of Cryptosporidium parvum (ELISA, infected HCT-8 monolayers); type: cell-based; settings: Cryptosporidium parvum, HCT-8, 48 h, read-out: Percent Inhibition of C. parvum; for inhibition at 25 µg/mL: 25 μg/mL; for inhibition at 50 µg/mL: 50 μg/mL; for inhibition at 100 µg/mL: 100 μg/mL; for inhibition at 200 µg/mL: 200 μg/mL
Description: Susceptibility testing against Cryptosporidium was performed according to published procedures (K. Woods, M. Nesterenko, S. Upton, "Development of a microtiter ELISA to quantify development of Cryptosporidium parvum in vitro," FEMS Microbiology Letters, 128:89-94 (1995).
Compounds were solubilized to a concentration of 100 mg/mL in 100% DMSO. DMSO solutions of test compounds were added to the test wells of a microplate at a volume that produced a final concentration of DMSO of 0.2%. Monolayers of human ileocecal adenocarcinoma cells (HCT-8) were prepared by growth in RPMI 1640 medium in 96-Well tissue culture trays for 24 h. Oocysts of C. parvum were allowed to excyst in 10% bleach for 10 min prior to use. Monolayers were then infected with 2-3×10^4 oocysts/well and incubated in the presence or absence of compound for 48 h at 35° C. in 5% CO2 and 95% humidity. Background consisted of wells containing killed oocysts (freeze thaw cycle following 30 sec exposure to liquid nitrogen). Growth control wells were infected with 2-3×10^4 oocysts/well in the absence of test compounds. At the end of incubation, wells were washed and fixed by adding 100 uL of 4% formalin in phosphate buffered saline (pH 7.3) per well for 2 h. After blocking with 1% bovine serum albumin, and 0.002% Tween 20, 50 uL of rat anti-Cryptosporidium membrane protein antiserum was added. After 30 min, wells were washed in PBS and 50 uL of secondary antibody (goat anti-rat antibody conjugated with horseradish peroxidase) was added. After 20-30 min, wells were washed again in PBS and 50 uL of 3,3',5,5'-tetramethylbenzidine solution was added. Plates were allowed to develop for 10-15 min and the optical density was read at 630 nm. Percent inhibition was calculated by comparing the optical density of the drug treated group to that of the untreated control.

[4] = test system: Mycobacterium tuberculosis (rMTB); experiment: In vivo antimycobacterial activity against M. tuberculosis (rMTB) in spleens of mice; parameters: species or system Mycobacterium tuberculosis Erdman, in female BALB/c mice; settings: 25 mg/kg daily oral gavage, CM-2, 10 days, control 422,866 (PA-824, 636, 1297) or 362,274 (others)
[5] = test system: Helicobacter pylori Strain 4187E; experiment: In vivo activity against Helicobacter pylori strain 4187E in mice; parameters: species or system in outbred female white mice; settings: oral gavage, four days
Excerpt: Outbred female white mice (20 grams) were infected by oral gavage with 10^7 -10^8 colony forming units of H. pylori strain 4187E (originally isolated from a patient with a duodenal ulcer). […] Treatment continued for four days. Clarithromycin, administered at the same concentration and for the same duration, was included as a positive control. One group of animals also received an equal volume of formulation vehicle alone, to provide a negative control.
Five days after cessation of treatment, all animals were sacrificed, the stomachs were removed, opened, and the contents washed out. The entire mucosal surface was then spread evenly over the surface of an agar plate containing antibiotics appropriate for the prevention of growth of microorganisms other than Helicobacter spp. After seven days incubation under microaeropilic conditions at 37° C., culture plates were evaluated for bacterial growth.

[6] = 72 h, read-out: MIC against Helicobacter pylori, strain 17 (Table 5A)
[7] = 72 h, read-out: MIC against Helicobacter pylori, strain 19 (Table 5A)
[8] = 72 h, read-out: MIC against Helicobacter pylori, strain 20 (Table 5A)
[9] = 72 h, read-out: MIC against Helicobacter pylori, strain 40 (Table 5A)
[10] = 72 h, read-out: MIC against Helicobacter pylori, strain 43 (Table 5A)
[11] = 72 h, read-out: MIC against Helicobacter pylori, strain 76 (Table 5A)
[12] = ATCC43504, 72 h, read-out: MIC against Helicobacter pylori, strain ATCC 43504 (Table 5A)

O=C(N[C@@H]1COc2nc([N+](=O)[O-])cn2C1)c1ccc(OCc2ccccc2)cc1 [PA-1125]
MIC [1]: 0.06 µg/mL (≈ 0.152 µM)
MIC [2]: 1.5 µg/mL (≈ 3.8 µM)
MIC (Helicobacter pylori; [6]): > 25 µg/mL
MIC (Helicobacter pylori; [7]): 0.8 µg/mL (≈ 2.03 µM)
MIC (Helicobacter pylori; [8]): 0.8 µg/mL (≈ 2.03 µM)
MIC (Helicobacter pylori; [9]): 1.5 µg/mL (≈ 3.8 µM)
MIC (Helicobacter pylori; [10]): 1.5 µg/mL (≈ 3.8 µM)
MIC (Helicobacter pylori; [11]): > 25 µg/mL
MIC (Helicobacter pylori; [12]): > 25 µg/mL

O=[N+]([O-])c1cn2c(n1)OC[C@@H](OCc1ccc(C(F)(F)F)cc1)C2 [PA-636, 3S 4-(Trifluromethyl)benzyloxy-6-nitro-2H-3,4-dihydo-[2-1b]imidazopyran]
MIC [1]: 0.5 µg/mL (≈ 1.46 µM)
Average RLUs, M. tuberculosis (rMTB) in lungs [3]: 5,790 RLUs
MIC [2]: 3.12 µg/mL (≈ 9.09 µM)
inhibition at 25 µg/mL (Cryptosporidium parvum): 14.5%
inhibition at 50 µg/mL (Cryptosporidium parvum): 9.4%
inhibition at 100 µg/mL (Cryptosporidium parvum): 21%
inhibition at 200 µg/mL (Cryptosporidium parvum): 39%
Average RLUs, M. tuberculosis (rMTB) in spleens [4]: 91,377 RLUs

CCCCCCCCC(=O)N[C@@H]1COc2nc([N+](=O)[O-])cn2C1 [PA-1139]
MIC [1]: 0.06 µg/mL (≈ 0.185 µM)
MIC [2]: 3.12 µg/mL (≈ 9.62 µM)
MIC (Helicobacter pylori; [6]): > 25 µg/mL
MIC (Helicobacter pylori; [7]): 1.5 µg/mL (≈ 4.62 µM)
MIC (Helicobacter pylori; [8]): 0.8 µg/mL (≈ 2.47 µM)
MIC (Helicobacter pylori; [9]): 0.8 µg/mL (≈ 2.47 µM)
MIC (Helicobacter pylori; [10]): 1.5 µg/mL (≈ 4.62 µM)
MIC (Helicobacter pylori; [11]): 25 µg/mL (≈ 77.1 µM)
MIC (Helicobacter pylori; [12]): > 25 µg/mL
inhibition at 25 µg/mL (Cryptosporidium parvum): -13%
inhibition at 50 µg/mL (Cryptosporidium parvum): -3%
inhibition at 100 µg/mL (Cryptosporidium parvum): 56%
inhibition at 200 µg/mL (Cryptosporidium parvum): 98.9%

4-Bromobenzyl Carbamate of 3S 3-Hydroxy-6-nitro-3,4-dihydro-[2-1b]imidazopyran [PA-1324]
MIC, column A, 3(S) compounds [1]: 0.015
Average RLUs, M. tuberculosis (rMTB) in lungs [3]: 1,612 RLUs
Average RLUs, M. tuberculosis (rMTB) in spleens [4]: 85,130 RLUs

O=[N+]([O-])c1cn2c(n1)OC[C@@H](OCc1ccccc1)C2 [PA-651]
MIC [1]: > 5 µg/mL
MIC [2]: 3.12 µg/mL (≈ 11.3 µM)

CCCCCCCCc1ccc(CO[C@@H]2COc3nc([N+](=O)[O-])cn3C2)cc1 [PA-1142]
MIC [1]: 0.06 µg/mL (≈ 0.155 µM)
MIC [2]: 1.5 µg/mL (≈ 3.87 µM)
MIC (Helicobacter pylori; [6]): > 25 µg/mL
MIC (Helicobacter pylori; [7]): 0.4 µg/mL (≈ 1.03 µM)
MIC (Helicobacter pylori; [8]): 0.8 µg/mL (≈ 2.06 µM)
MIC (Helicobacter pylori; [9]): 1.5 µg/mL (≈ 3.87 µM)
MIC (Helicobacter pylori; [10]): 0.4 µg/mL (≈ 1.03 µM)
MIC (Helicobacter pylori; [11]): 3.12 µg/mL (≈ 8.05 µM)
MIC (Helicobacter pylori; [12]): > 25 µg/mL

CCCCCCCCO[C@@H]1COc2nc([N+](=O)[O-])cn2C1 [PA-602, 3S n-Octyloxy-6-nitro-2H-3,4-dihydro-[2-1b]imidazopyran]
MIC [1]: < 5 µg/mL
MIC [2]: 3.12 µg/mL (≈ 10.5 µM)

O=C(Nc1ccc(C(F)(F)F)cc1)O[C@@H]1COc2nc([N+](=O)[O-])cn2C1 [PA-1327, 4-(Trifluoromethyl)phenyl Carbamate of 3S Hydroxy-6-nitro-2H-3,4-dihydo-[2-1b]imidazopyran]
MIC [1]: 0.25 µg/mL (≈ 0.672 µM)
Average RLUs, M. tuberculosis (rMTB) in lungs [3]: 1,561 RLUs
Average RLUs, M. tuberculosis (rMTB) in spleens [4]: 68,362 RLUs

O=[N+]([O-])c1cn2c(n1)OC[C@@H](OCc1ccc(F)cc1)C2 [PA-655]
MIC [1]: > 5 µg/mL
MIC [2]: 6.25 µg/mL (≈ 21.3 µM)

CC[C@H]1OC(=O)[C@H](C)[C@@H](O[C@H]2C[C@@](C)(OC)[C@@H](O)[C@H](C)O2)[C@H](C)[C@@H](O[C@@H]2O[C@H](C)C[C@H](N(C)C)[C@H]2O)[C@](C)(OC)C[C@@H](C)C(=O)[C@H](C)[C@@H](O)[C@]1(C)O [Clarithromycin, reference compound]
MICs of control drugs relative to expected values (Helicobacter pylori; H. pylori ATCC 43): within the expected values
MIC (Helicobacter pylori; [6]): 0.016 µg/mL (≈ 0.0214 µM)
MIC (Helicobacter pylori; [7]): 8 µg/mL (≈ 10.7 µM)
MIC (Helicobacter pylori; [8]): 8 µg/mL (≈ 10.7 µM)
MIC (Helicobacter pylori; [9]): 0.016 µg/mL (≈ 0.0214 µM)
MIC (Helicobacter pylori; [10]): 0.008 µg/mL (≈ 0.0107 µM)
MIC (Helicobacter pylori; [11]): 0.032 µg/mL (≈ 0.0428 µM)
MIC (Helicobacter pylori; 72 h, read-out: MIC against Helicobacter pylori, strain B40, Met-S, Clar-S (Table 5B)): < 0.015 µg/mL
MIC (Helicobacter pylori; 72 h, read-out: MIC against Helicobacter pylori, strain B76, Met-R, Clar-S (Table 5B)): < 0.015 µg/mL
MIC (Helicobacter pylori; 72 h, read-out: MIC against Helicobacter pylori, strain C1649, Met-R, Clar-R (Table 5B)): > 4 µg/mL
MIC (Helicobacter pylori; 72 h, read-out: MIC against Helicobacter pylori, strain C11403, Met-S, Clar-R (Table 5B)): 4 µg/mL (≈ 5.35 µM)
MIC (Helicobacter pylori; 72 h, read-out: MIC against Helicobacter pylori, strain C19765 (Table 5B)): < 0.015 µg/mL
MIC (Helicobacter pylori; 72 h, read-out: MIC against Helicobacter pylori, strain RD26, Met-S, Clar-S (Table 5B)): 0.03 µg/mL (≈ 0.0401 µM)
MIC (Helicobacter pylori; 72 h, read-out: MIC against Helicobacter pylori, strain rd26, Met-S, Clar-S (Table 5B)): 0.03 µg/mL (≈ 0.0401 µM)
MIC (Helicobacter pylori; [12]): 0.06 µg/mL (≈ 0.0802 µM)
MIC (Helicobacter pylori; ATCC43504, 72 h, read-out: MIC against Helicobacter pylori, strain ATCC 43504, Met-R, Clar-S (Table 5B)): 0.03 µg/mL (≈ 0.0401 µM)
MIC (Helicobacter pylori; ATCC43526, 72 h, read-out: MIC against Helicobacter pylori, strain ATCC 43526, Met-R, Clar-S (Table 5B)): < 0.015 µg/mL
MIC (Helicobacter pylori; ATCC43579, 72 h, read-out: MIC against Helicobacter pylori, strain ATCC 43579, Met-S, Clar-S (Table 5B)): < 0.015 µg/mL
MIC (Helicobacter pylori; ATCC43629, 72 h, read-out: MIC against Helicobacter pylori, strain ATCC 43629, Met-S, Clar-S (Table 5B)): 0.03 µg/mL (≈ 0.0401 µM)
% Eradication ([5]; twice daily 5 mg/kg): 0%
% Eradication ([5]; twice daily 50 mg/kg): 100%

O=[N+]([O-])c1cn2c(n1)OC[C@@H](OCc1ccc(F)cc1F)C2 [PA-654]
MIC [1]: > 5 µg/mL
MIC [2]: 3.12 µg/mL (≈ 10 µM)

O=C(NCc1ccc(OC(F)(F)F)cc1)O[C@@H]1COc2nc([N+](=O)[O-])cn2C1 [PA-1328, 4-(Trifluoromethoxy)benzyl Carbamate of 3S Hydroxy-6-nitro-2H-3,4-dihydo-[2-1b]imidazopyran]
MIC [1]: 0.03 µg/mL (≈ 0.0746 µM)
Average RLUs, M. tuberculosis (rMTB) in lungs [3]: 3,000 RLUs
Average RLUs, M. tuberculosis (rMTB) in spleens [4]: 251,264 RLUs
